According to patent publication US11866438B2, “Compositions, uses and methods for making them” (Pimera, Inc., priority 2015, dated 2024):
Where two headings read alike, the source gives them in different places.

Columns and labels:
Type in all cases: cell-based
[1] = test system: MBA-MB-231; assay: Alamar Blue cell proliferation inhibition, MBA-MB-231 (MM231); details: Alamar Blue assay, 96 h incubation
Experimental: (§1) Inhibitory activity on cell proliferation of representative compounds of the invention was determined using an Alamar Blue cell viability assay as described hereafter.
(§2) 3000 cancer cells in 100 uL of cell culture media were plated in each well of a 96-well clear bottom, black wall cell culture-pretreated plate.
(§3) The next day compounds are serially diluted (3-fold in cell culture media) across a 96-well polypropylene mother plate from row A to row F, to yield 6 concentrations (10 uM, 3.3 uM, 1.1 uM, 370 nM, 124 nM and 41 nM) for each test compound. Rows G and H contain only DMSO.
(§4) Once titrations are made, the media in plates with cells were disposed and 100 μL of drug dilutions are transferred to plates with cells. After a ninety six-hour incubation at 37° C., 10 uL of resazurin solution from Alamar Blue Cell Viability kit (Invitrogen, Carlsbad, CA) was added to the media and cells were incubated at 37° C. for three more hours. At the end of this incubation the production of resofurin was measured using Spectrmax M2 microplate reader (Molecular Devices, Sunnyvale, CA)

[2] = test system: SK-BR-3; assay: Alamar Blue cell proliferation inhibition, SK-BR-3; details: Homo sapiens, Alamar Blue assay, 96 h incubation
Experimental: as §1, §2, §3, §4

[3] = test system: THP-1; assay: Alamar Blue cell proliferation inhibition, THP-1; details: Homo sapiens, Alamar Blue assay, 96 h incubation, Table 3, read-out: cell proliferation inhibition, Cell line THP-1
Experimental: as §1, §2, §3, §4

[4] = test system: SKM-1_1; assay: Alamar Blue cell proliferation inhibition, SKM-1_1; details: Alamar Blue assay, 96 h incubation, Table 3; read-out: cell proliferation inhibition, Cell line SKM-1_1
Experimental: as §1, §2, §3, §4

[5] = test system: ML-2; assay: Alamar Blue cell proliferation inhibition, ML-2; details: Homo sapiens, Alamar Blue assay, 96 h incubation, Table 3, read-out: cell proliferation inhibition, Cell line ML-2
Experimental: as §1, §2, §3, §4

[6] = test system: P12-ICHIKAWA; assay: Alamar Blue cell proliferation inhibition, P12-ICHIKAWA; details: Homo sapiens, Alamar Blue assay, 96 h incubation, Table 3, read-out: cell proliferation inhibition, Cell line P12-ICHIKAWA
Experimental: as §1, §2, §3, §4

[7] = test system: NB-4-1; assay: Alamar Blue cell proliferation inhibition, NB-4-1; details: Alamar Blue assay, 96 h incubation, Table 3; read-out: cell proliferation inhibition, Cell line NB-4-1
Experimental: as §1, §2, §3, §4

[8] = test system: KG-1; assay: Alamar Blue cell proliferation inhibition, KG-1; details: Homo sapiens, Alamar Blue assay, 96 h incubation, Table 3, read-out: cell proliferation inhibition, Cell line KG-1
Experimental: as §1, §2, §3, §4

[9] = Table 2, read-out: cell proliferation inhibition, Cell Line MBA-MB-231
[10] = Table 2, read-out: cell proliferation inhibition, Cell Line SK-BR-3
[11] = Table 3, read-out: cell proliferation inhibition, Cell line MM231
[12] = Table 3, read-out: cell proliferation inhibition, Cell line SK-BR-3

SMILES	IC50 [2, 10] [µM]	IC50 [1, 9] [µM]	also measured
C[C@@H]1CN(c2nc3cc(Cl)cnc3n3c2nc2ccccc23)C[C@H](C)N1 [Compound 21]	> 10	> 10	–
CN(C)CCNc1nc2nccnc2n2c1nc1ccccc12 [Compound 34]	1 to 5	1 to 5	–
Cc1ccc2nc(NCCN(C)C)c3nc4ccccc4n3c2n1 [Compound 13]	1 to 5	1 to 5	–
CN(C)CCNc1nc2cncnc2n2c1nc1ccccc12 [Compound 27]	1 to 5	1 to 5	–
C[C@@H]1CN(c2nc3nccnc3n3c2nc2ccccc23)C[C@H](C)N1 [Compound 35]	1 to 5	1 to 5	–
Clc1cnc2c(c1)nc(NCCN1CCCC1)c1nc3ccccc3n12 [Compound 19]	1 to 5	1 to 5	–
Cc1ccc2nc(NCCN3CCCC3)c3nc4ccccc4n3c2n1 [Compound 12]	1 to 5	1 to 5	–
CN1CCCN(c2nc3cncnc3n3c2nc2ccccc23)CC1 [Compound 29]	1 to 5	1 to 5	–
CN1CCCN(c2nc3cc(Cl)cnc3n3c2nc2ccccc23)CC1 [Compound 22]	1 to 5	5 to 10	–
c1ccc2c(c1)nc1c(NCCN3CCCC3)nc3cncnc3n12 [Compound 26]	1 to 5	1 to 5	–
CN(C)CCNc1nc2cccnc2n2c1nc1ccccc12 [Compound 5]	–	–	IC50 [3]: 1 to 5 µM; IC50 [4]: 1 to 5 µM; IC50 [5]: 1 to 5 µM; IC50 [6]: 1 to 5 µM; IC50 [7]: 1 to 5 µM; IC50 [8]: 1 to 5 µM
CN(C)CCNC(=O)c1cc2cc3ccccc3nc2n2ccnc12 [Compound 52]	–	–	IC50 [3]: 1 to 5 µM; IC50 [4]: < 1 µM; IC50 [5]: 1 to 5 µM; IC50 [6]: 1 to 5 µM; IC50 [7]: 1 to 5 µM; IC50 [8]: 1 to 5 µM
CN1CCCN(c2nc3nccnc3n3c2nc2ccccc23)CC1 [Compound 36]	1 to 5	1 to 5	–
CN(C)CCNc1nc2cc(Cl)cnc2n2c1nc1ccccc12 [Compound 20]	1 to 5	1 to 5	–
C[C@@H]1CN(c2nc3cncnc3n3c2nc2ccccc23)C[C@H](C)N1 [Compound 28]	1 to 5	1 to 5	–
CN1CCCN(C(=O)c2cc3cc4ccccc4nc3n3ccnc23)CC1 [Compound 55]	–	–	IC50 [1, 11]: > 10 µM; IC50 [2, 12]: > 10 µM
Cc1ccc2nc(N3C[C@@H](C)N[C@@H](C)C3)c3nc4ccccc4n3c2n1 [Compound 14]	1 to 5	1 to 5	–
CN1CCCN(c2ccc3[nH]c(=O)c4nc5ccccc5n4c3n2)CC1 [Compound 41, 2-(4-Methyl-[1,4]diazepan-1-yl)-5H-1,5,7,11b-tetraaza-benzo[c]fluoren-6-one]	–	–	IC50 [2, 12]: < 1 µM
O=c1[nH]c2ccc(NCCN3CCCC3)nc2n2c1nc1ccccc12 [Compound 39]	–	–	IC50 [1, 11]: 1 to 5 µM; IC50 [2, 12]: 1 to 5 µM
Cc1ccc2nc(N3CCCN(C)CC3)c3nc4ccccc4n3c2n1 [Compound 15]	1 to 5	1 to 5	–

Second part, led by results:

IC50 [2, 10] [µM]	SMILES	IC50 [1, 9] [µM]	also measured
> 10	COc1ccc2nc3c(cc(C(=O)N4CCCN(C)CC4)c4nccn43)cc2c1 [Compound 56]	> 10	–
> 10	CN1CCCN(C(=O)c2cc3cc4cc(Cl)ccc4nc3n3ccnc23)CC1 [Compound 60]	> 10	–
> 10	O=C(NCCN1CCCC1)c1cc2cc3cc(Cl)ccc3nc2n2ccnc12 [Compound 62]	> 10	–
1 to 5	COc1ccc2nc3c(cc(C(=O)NCCN(C)C)c4nccn43)cc2c1 [Compound 57]	1 to 5	–
> 10	C[C@@H]1CN(C(=O)c2cc3cc4cc(Cl)ccc4nc3n3ccnc23)C[C@H](C)N1 [Compound 63]	> 10	–
> 10	CN(C)CCNC(=O)c1cc2cc3cc(Cl)ccc3nc2n2ccnc12 [Compound 61]	> 10	–
